# Experimental data published in patent US9751885B2, “Cyclopropanamine compound and use thereof” (Takeda Pharmaceutical Company Limited, priority 2012, dated 2017).
# pIC50: −log10 of the molar value. Structures can show the parent of a compound that is named as a salt. Where two headings read alike, the source gives them in different places.
# What was measured:
# human LSD1(172-833) = human LSD1(172-833) (Homo sapiens (Human), UniProt O60341); assay: Measurement of LSD1 inhibitory activity (time-resolved fluorescence, biotin-histone H3 mono methylated K4 peptide); format: biochemical
# Procedure, shortened: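 Remaining signal detected by TR-FRET after 60 min with europium anti-histone H3 antibody and streptavidin-XL665 in potassium fluoride/0.1% BSA.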
# MAO-A enzyme = MAO-A enzyme (Homo sapiens (Human), UniProt P21397); assay: Measurement of MAO-A inhibitory activity (MAO-Glo Assay); format: biochemical
# Protocol: The MAO-A inhibitory activity evaluation described below followed the protocol of MAO-Glo (registered trademark) Assay of Promega KK.
# A test compound dissolved in 4% DMSO was added by 12.5 μL to 25 μL reaction solution (100 mM HEPES (pH 7.5), 5% glycerol) containing 400 ng of MAO-A enzyme (Sigma-Aldrich Co. LLC.), and the mixture was reacted at room temperature for 10 min. […] After reaction at room temperature for 60 min, Luciferine detection reagent (Promega KK) (50 μL) was added to terminate the reaction. After reaction at room temperature for min with stirring, the luminescence was measured by Envision (PerkinElmer). The MAO-A inhibitory rate (%) of the test compound was calculated by the following formula. inhibitory rate(%)=(1−(test compound count−blank)÷(control−blank))×100
# The count of the MAO-A enzyme reaction mixture under compound non-addition conditions is indicated as control, and the count under compound non-addition and MAO-A enzyme non-addition conditions is indicated as blank.
# [1] = tested on: white blood cell number, red blood cell number, platelet number; assay: Evaluation of blood cell number in mouse; format: in vivo; details: oral, Day 2 after administration
# Protocol: Evaluation of Blood Cell Number in Mouse
# (§1) Male ICR mice (hereinafter mice) were acclimated for at least one week in a rearing facility. The mice were raised in a rearing room with controlled temperature and humidity under a 12:12 hour light-dark cycle, and allowed free ingestion of feed and water.
# The compounds were suspended in 0.5% methylcellulose/0.02% citric acid/distilled water and orally administered. All compounds were administered to the mice at a dose of 1 mg/kg, 10 mg/kg, 50 mg/kg or 100 mg/kg (body weight). On Day 2 after the administration of the compound, the whole blood was collected.
# Using Sysmex XT-1800i (Sysmex Corporation), the white blood cell number, red blood cell number, and platelet number in the collected whole blood per unit volume were measured. The influence of each compound on each blood cell number was determined by comparing the number with the mean of each blood cell number of the mouse without administration of the compound (control group), and the numerical value of each blood cell number of a mouse with the administration of the compound is shown in percentage. percentage (%) of blood cell number of compound administration group as compared to control group=(mean blood cell number of compound administration group mean blood cell number of compound non-administration group)×100
# [2] = Evaluation of hippocampal distribution in mouse; format: in vivo; details: male ICR mice, 10 mg/kg oral
# Protocol: Evaluation of Hippocampal Distribution in Mouse
# as §1
# The compounds were suspended in 0.5% methylcellulose/0.02% citric acid/distilled water and orally administered. All compounds were administered to the mice at a dose of 10 mg/kg (body weight).
# Blood samples were collected at 0.5 hr, or 1 hr, or 1.5 hr from compound administration, and the hippocampus was isolated simultaneously. The plasma concentration and hippocampus concentration of each test compound were measured by the LC/MS/MS method, the ratio (hippocampus/plasma concentration ratio) was calculated, and distribution into hippocampus was evaluated.
# MAO-B enzyme = MAO-B enzyme (Homo sapiens (Human), UniProt P27338); assay: Measurement of MAO-B inhibitory activity (MAO-Glo Assay); details: read-out: MAO-B IC50 value;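 also: luminescence read-out, compound preincubated 10 min with enzyme then reacted 60 min at room temperature, inhibition relative to enzyme reaction without compound, blank lacking enzyme and compound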
# [3] = tested on: Gad1 H3K4me2 level in rat primary culture neurons; assay: Gad1 H3K4 methylation induction activity in rat primary culture neurons (ChIP-qPCR); format: cell-based; details: Rattus norvegicus, Neuron, 72 h, control without compound = 100%; for activity at 1 µM: read-out: Gad1 H3K4me2 induction activity (%), compound 1 μM, 3 days, rat primary culture neurons; for activity at 10 µM: read-out: Gad1 H3K4me2 induction activity (%), compound 10 μM, 3 days, rat primary culture neurons
# Protocol: Gad1 H3K4 Methylation Induction Activity in Rat Primary Culture Neurons
# Thereafter, the compound was added to final concentrations of 1 or 10 μM, and the cells were further cultured for 3 days. The culture supernatant was aspirated, ice-cold PBS was added, and the cell suspension was collected on ice using CELL SCRAPER (IWAKI). […] (750 μL). Furthermore, 0.3% NP40/cell lysis buffer 1 (750 μL) was added, and the cells were lysed by incubating for 5 min on ice.
# Using the DNA obtained by the chromatin immunoprecipitation as a template, quantitative PCR of the Gad1 gene upstream genomic region was performed, and the measurement value was taken as the Gad1 H3K4me2 level. […] The Gad1 H3K4me2 induction by the compound was expressed by the H3K4me2 level when the compound was added, as compared to the H3K4me2 level of the control (without addition of the compound) as 100%.
# [4] = hippocampus, 0.5 hr after administration, read-out: hippocampus concentration (mean)
# [5] = plasma, 0.5 hr after administration, read-out: plasma concentration (mean)
# [6] = hippocampus, 1 hr after administration, read-out: hippocampus concentration (mean)
# [7] = plasma, 1 hr after administration, read-out: plasma concentration (mean)
# MAO-B enzyme, sequence (P27338 whole entry): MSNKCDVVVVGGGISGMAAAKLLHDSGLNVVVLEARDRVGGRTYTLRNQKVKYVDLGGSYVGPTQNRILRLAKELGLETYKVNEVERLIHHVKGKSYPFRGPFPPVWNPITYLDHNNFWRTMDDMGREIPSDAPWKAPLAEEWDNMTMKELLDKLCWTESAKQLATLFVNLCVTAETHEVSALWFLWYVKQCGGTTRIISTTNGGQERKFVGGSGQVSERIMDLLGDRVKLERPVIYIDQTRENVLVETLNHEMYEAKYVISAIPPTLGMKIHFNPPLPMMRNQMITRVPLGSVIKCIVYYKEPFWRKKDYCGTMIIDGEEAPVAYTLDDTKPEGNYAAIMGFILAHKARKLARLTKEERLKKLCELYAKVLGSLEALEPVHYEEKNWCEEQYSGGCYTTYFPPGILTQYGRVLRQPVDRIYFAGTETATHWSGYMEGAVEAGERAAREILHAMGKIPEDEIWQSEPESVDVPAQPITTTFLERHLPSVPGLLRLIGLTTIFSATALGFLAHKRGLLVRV
# MAO-A enzyme, sequence (P21397 whole entry): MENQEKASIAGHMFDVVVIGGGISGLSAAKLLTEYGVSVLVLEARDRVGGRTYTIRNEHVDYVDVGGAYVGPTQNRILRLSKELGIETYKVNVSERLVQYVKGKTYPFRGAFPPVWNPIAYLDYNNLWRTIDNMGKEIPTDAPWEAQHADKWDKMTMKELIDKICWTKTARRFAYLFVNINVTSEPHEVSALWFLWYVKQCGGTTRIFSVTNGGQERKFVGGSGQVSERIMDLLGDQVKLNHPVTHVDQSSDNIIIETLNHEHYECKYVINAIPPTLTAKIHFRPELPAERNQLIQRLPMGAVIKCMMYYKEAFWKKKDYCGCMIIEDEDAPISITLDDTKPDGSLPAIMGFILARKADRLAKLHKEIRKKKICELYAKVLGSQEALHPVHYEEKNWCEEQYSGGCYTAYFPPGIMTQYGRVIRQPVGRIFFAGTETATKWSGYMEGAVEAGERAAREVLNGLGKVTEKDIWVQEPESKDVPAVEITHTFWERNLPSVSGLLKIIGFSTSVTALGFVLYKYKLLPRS
"Kp at 1 h ([2]; hippocampus/plasma, 1 hr after administration, read-out: hippocampus/plasma concentration ratio (mean))",SMILES,pIC50 (human LSD1(172-833)),pIC50 (MAO-A enzyme),"platelet number, percentage of compound administration group compared to control group, mean ([1]; 10 mg/kg)","red blood cell number, percentage of compound administration group compared to control group, mean ([1]; 10 mg/kg)","white blood cell number, percentage of compound administration group compared to control group, mean ([1]; 10 mg/kg)","platelet number, percentage of compound administration group compared to control group, mean ([1]; 100 mg/kg)","red blood cell number, percentage of compound administration group compared to control group, mean ([1]; 100 mg/kg)","white blood cell number, percentage of compound administration group compared to control group, mean ([1]; 100 mg/kg)","concentration at 0.5 h [2, 4]","Kp at 0.5 h ([2]; hippocampus/plasma, 0.5 hr after administration, read-out: hippocampus/plasma concentration ratio (mean))","concentration at 0.5 h [2, 5]",pIC50 (MAO-B enzyme),"concentration at 1 h [2, 6]","concentration at 1 h [2, 7]",activity at 1 µM [3],activity at 10 µM [3]
–,"O=C(NC1CC(F)(F)C1)c1ccc(F)c([C@@H]2C[C@H]2NCC2CC2)c1 (relative stereo) [Example 240, 3-(trans-2-((cyclopropylmethyl)amino)cyclopropyl)-N-(3,3-difluorocyclobutyl)-4-fluorobenzamide hydrochloride]",> 7.00,< 5.00,90.7%,95.5%,82.3%,94.7%,98.7%,109.4%,329 ng/g,1.31,247 ng/mL,< 5.00,–,–,–,–
–,"O=C(Nc1cnn(CC2CC2)c1)c1cccc([C@@H]2C[C@H]2NCC2CCOCC2)c1 (relative stereo) [Example 87, N-(1-(cyclopropylmethyl)-1H-pyrazol-4-yl)-3-(trans-2-((tetrahydro-2H-pyran-4-ylmethyl)amino)cyclopropyl)benzamide dihydrochloride]",> 7.00,< 5.00,111.7%,96.8%,94.6%,105.2%,100.7%,101.1%,–,–,–,< 5.00,43 ng/g,251 ng/mL,–,–
–,"Cn1cc(NC(=O)c2ccc(F)c([C@@H]3C[C@H]3NCC3CC3)c2)cn1 (relative stereo) [Example 237, 3-(trans-2-((cyclopropylmethyl)amino)cyclopropyl)-4-fluoro-N-(1-methyl-1H-pyrazol-4-yl)benzamide dihydrochloride]",> 7.00,< 5.00,90.3%,98.8%,83.9%,91.9%,96.5%,86.7%,237 ng/g,–,523 ng/mL,< 5.00,–,–,–,–
–,"Cn1cc(NC(=O)c2cccc([C@@H]3C[C@H]3NCC3CC3)c2)cn1 (relative stereo) [Example 59, 3-(trans-2-((cyclopropylmethyl)amino)cyclopropyl)-N-(1-methyl-1H-pyrazol-4-yl)benzamide dihydrochloride]",–,–,91.9%,101.1%,128.1%,91.2%,93.3%,98.8%,–,–,–,–,–,–,206%,161%
–,"O=C(Nc1ccc(N2CCCC2=O)cc1)c1cccc([C@@H]2C[C@H]2NCC2CC2)c1 (relative stereo) [Example 82, 3-(trans-2-((cyclopropylmethyl)amino)cyclopropyl)-N-(4-(2-oxopyrrolidin-1-yl)phenyl)benzamide hydrochloride]",> 7.00,< 5.00,104.6%,100.5%,81.2%,94.6%,99.9%,135.5%,58 ng/g,–,5610 ng/mL,< 5.00,–,–,–,–
–,"Cc1ncc(NC(=O)c2cccc([C@@H]3C[C@H]3NCC3CC3)c2)s1 (relative stereo) [Example 79, 3-(trans-2-((cyclopropylmethyl)amino)cyclopropyl)-N-(2-methyl-1,3-thiazol-5-yl)benzamide dihydrochloride]",> 7.00,< 5.00,92.4%,101.1%,122.4%,92.8%,101.6%,96.3%,569 ng/g,–,759 ng/mL,< 5.00,–,–,–,–
–,"Cc1nnc(NC(=O)c2ccc(C)c([C@@H]3C[C@H]3NC3CCOCC3)c2)s1 (relative stereo) [Example 184, 4-methyl-N-(5-methyl-1,3,4-thiadiazol-2-yl)-3-(trans-2-(tetrahydro-2H-pyran-4-ylamino)cyclopropyl)benzamide dihydrochloride]",–,–,–,–,–,–,–,–,–,–,–,–,–,–,136%,122%
–,"Cc1nnc(NC(=O)c2cccc([C@@H]3C[C@H]3NC3CCC(F)(F)CC3)c2)s1 (relative stereo) [Example 166, 3-(trans-2-((4,4-difluorocyclohexyl)amino)cyclopropyl)-N-(5-methyl-1,3,4-thiadiazol-2-yl)benzamide dihydrochloride]",–,–,–,–,–,–,–,–,–,–,–,–,–,–,98%,147%
–,"Cn1cc(NC(=O)c2cccc([C@@H]3C[C@H]3NCC(C)(C)C)c2)cn1 (relative stereo) [Example 155, 3-(trans-2-((2,2-dimethylpropyl)amino)cyclopropyl)-N-(1-methyl-1H-pyrazol-4-yl)benzamide dihydrochloride]",–,–,–,–,–,–,–,–,–,–,–,–,–,–,104%,106%
4.5,"Cc1cc(NC(=O)c2cccc([C@@H]3C[C@H]3NCC3CCOCC3)c2)no1 (relative stereo) [Example 231, N-(5-methyl-1,2-oxazol-3-yl)-3-(trans-2-((tetrahydro-2H-pyran-4-ylmethyl)amino)cyclopropyl)benzamide]",> 7.00,< 5.00,93.7%,99.7%,75.7%,90.4%,95.0%,77.1%,–,–,–,< 5.00,527 ng/g,117 ng/mL,–,–
